# Laboratory results as given in patent US10005817B2, “Peptide pharmaceuticals” (EUMEDERIS PHARMACEUTICALS, INC., priority 2012, dated 2018).
# Positions of bridges follow the written chain, without caps; N, C: chain ends. Non-standard residues stand in square brackets, D forms with d. Residues, ends and D or L forms follow the SMILES beside them. *: point of attachment. GlcA(β-D,1-O-dodecyl) = CCCCCCCCCCCCO[C@@H]1O[C@H](C(=O)*)[C@@H](O)[C@H](O)[C@H]1O; βGlcA(1-OMe) = CO[C@@H]1O[C@H](C(=O)*)[C@@H](O)[C@H](O)[C@H]1O; Phe(2,4,6-Me3) = Cc1cc(C)c(C[C@H](N)C(=O)O)c(C)c1; Dmt = Cc1cc(O)cc(C)c1C[C@H](N)C(=O)O; hArg = N=C(N)NCCCC[C@H](N)C(=O)O; Nle = CCCC[C@H](N)C(=O)O; Ac5c = NC1(C(=O)O)CCCC1; Aib = CC(C)(N)C(=O)O
# What was measured:
# PTH receptor (PTHR1) = molecular target: T1, PTH receptor (PTHR1) (Homo sapiens, UniProt Q03431); experiment: PTH1 cellular assay, cAMP, agonist mode (SaOS2 cells, Cerep); assay type: cell-based; settings: for Emax: SAOS-2, read-out: Maximal response (% PTHrP)
# T1 construct: Cerep SA
# T1 sequence (Q03431 27-593): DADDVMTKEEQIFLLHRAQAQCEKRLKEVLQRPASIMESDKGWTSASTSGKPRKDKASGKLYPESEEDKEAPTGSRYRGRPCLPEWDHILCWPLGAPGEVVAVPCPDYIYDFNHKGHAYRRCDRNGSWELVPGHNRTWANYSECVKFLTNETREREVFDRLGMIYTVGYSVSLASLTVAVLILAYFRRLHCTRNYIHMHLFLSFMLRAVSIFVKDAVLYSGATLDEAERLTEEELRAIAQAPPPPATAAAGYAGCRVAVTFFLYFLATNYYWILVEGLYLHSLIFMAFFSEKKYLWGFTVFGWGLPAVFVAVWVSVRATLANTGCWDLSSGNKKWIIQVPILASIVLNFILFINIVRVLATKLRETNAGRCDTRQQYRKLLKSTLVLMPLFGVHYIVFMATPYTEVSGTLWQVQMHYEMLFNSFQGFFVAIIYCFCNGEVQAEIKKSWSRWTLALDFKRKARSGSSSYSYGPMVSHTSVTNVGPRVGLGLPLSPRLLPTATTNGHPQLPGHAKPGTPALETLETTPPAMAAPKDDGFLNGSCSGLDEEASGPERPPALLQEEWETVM
# Procedure: Compounds were weighed precisely in an amount of approximately 1 mg and assayed in standard cellular assays (cerep SA). The readout is the amount of cAMP generated in the cells treated with the test compounds, in either agonist or antagonist mode.
# Compounds were dissolved in water and diluted in assay buffer containing 1% bovine serum albumin.
# mu opioid receptor = molecular target: T2, mu opioid receptor (Homo sapiens, UniProt P35372); experiment: mu opioid receptor cellular assay (MOP), agonist mode, cAMP readout (Cerep); assay type: cell-based
# T2 construct: Cerep
# T2 sequence (P35372 whole entry): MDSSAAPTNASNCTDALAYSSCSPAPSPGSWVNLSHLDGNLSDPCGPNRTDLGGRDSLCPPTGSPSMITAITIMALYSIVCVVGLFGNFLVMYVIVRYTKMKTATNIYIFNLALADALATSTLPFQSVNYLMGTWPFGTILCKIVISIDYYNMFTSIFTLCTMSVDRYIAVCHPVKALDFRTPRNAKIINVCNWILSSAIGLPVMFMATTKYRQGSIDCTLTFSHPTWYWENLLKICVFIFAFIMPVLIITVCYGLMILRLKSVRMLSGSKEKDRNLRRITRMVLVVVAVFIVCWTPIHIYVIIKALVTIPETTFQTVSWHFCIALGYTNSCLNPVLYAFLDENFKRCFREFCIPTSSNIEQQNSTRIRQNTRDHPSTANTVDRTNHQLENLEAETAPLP
# Procedure: Compounds were weighed precisely in an amount of approximately 2 mg and assayed in standard cellular assays by the contract research organization Cerep, Inc. (Pullman, Wash.) as executed at their subsidiary, Cerep SA (Le Bois l'Eveque, France). The readout is the amount of cAMP generated in the cells treated with the test compounds, in either agonist or antagonist mode. The assays used were the mu opioid receptor cellular assay (MOP in agonist and antagonist mode), the delta2 opioid receptor cellular assay (DOP in agonist and antagonist mode) and the kappa opioid receptor cellular assay (KOP in agonist and antagonist mode). The assays used are described in Wang, J. B., et al. (1994) FEBS Lett 338: 217-222, Law, P. Y. and Loh, H. H. (1993) Mol Pharmacol 43: 684-693, and Avidor-Reiss, T., et al. (1995) FEBS Lett 361: 70-74. The stimulant for the cells in the DOR antagonist assay was 3×10E-8M DPDPE, a well-accepted DOR literature standard.
# db/db mice = experiment: db/db mice, blood glucose after s.c. dosing; assay type: in vivo, mouse; settings: db/db mice, s.c., 250 nmole/kg
# Procedure: The 60 female db/db B6BKS (D) Leprdb/J (strain 000697) mice for this study were approximately 8 to 9 weeks old at arrival (Jackson Laboratory, Bar Harbor, Me.). […] One group of 8 female mice served as the vehicle control and received the vehicle, 0.2% BSA in saline, pH 7.4. One additional group of 8 female mice received the positive control article, liraglutide, at a dose level of 50 nmoles/kg. The test articles, vehicle, and positive control article were administered on Day 1, at approximately 0, 7, and 24 hours during the study via subcutaneous injection at a dose volume of 6 mL/kg.
# Clinical observations were conducted at receipt, prior to randomization, and daily from Days 1 to 5. Body weights were measured and recorded at receipt, prior to randomization, and daily from Days 1 to 5. Food consumption was measured and recorded daily from Days 1 to 5. Blood samples for glucose analysis were collected pretest (Day −3) and at 0, 1, 2, 4, 8, 10, 24, 48, 72, and 96 hours following the first dose on Day 1. At study termination all animals were euthanized and the carcasses were discarded without further evaluation.
Compound,Characterization (PTH receptor (PTHR1)),Emax (PTH receptor (PTHR1)) [%],Mean Blood Glucose (db/db mice; 0 hr) [mg/dL],Mean Blood Glucose (db/db mice; 10 hr) [mg/dL],Mean Blood Glucose (db/db mice; 24 hr) [mg/dL],Mean Blood Glucose (db/db mice; 48 hr) [mg/dL],further results
"CCCCCCCCCCCCO[C@@H]1O[C@H](C(=O)NCCCC[C@H](NC(=O)[C@H](CCC(N)=O)NC(=O)[C@@H](NC(=O)[C@H](Cc2c[nH]c3ccccc23)NC(=O)[C@H](CCCNC(=N)N)NC(=O)[C@H](C)NC(=O)[C@H](CCCCNC(=N)N)NC(=O)[C@H](CCC(N)=O)NC(=O)[C@H](Cc2c[nH]cn2)NC(=O)[C@H](CCCC)NC(=O)[C@H](CC(C)C)NC(=O)[C@H](CCC(N)=O)NC(=O)[C@@H](NC(=O)[C@H](CCC(=O)O)NC(=O)C(C)(C)NC(=O)[C@@H](NC(=O)C2(N)CCCC2)C(C)C)[C@@H](C)CC)[C@@H](C)CC)C(N)=O)[C@@H](O)[C@H](O)[C@H]1O [EU-204] (H-[Ac5c]V[Aib]EIQL[Nle]HQ[hArg]ARWIQK(GlcA(β-D,1-O-dodecyl))-NH2)",agonist,135,,,,,EC50 (PTH receptor (PTHR1)): 20 nM
"CCCCCCCCCCCCO[C@@H]1O[C@H](C(=O)NCCCC[C@H](NC(=O)C(C)(C)NC(=O)[C@H](CCC(N)=O)NC(=O)[C@@H](NC(=O)[C@H](Cc2c[nH]c3ccccc23)NC(=O)[C@H](CCCNC(=N)N)NC(=O)[C@H](C)NC(=O)[C@H](CCCCNC(=N)N)NC(=O)[C@H](CCC(N)=O)NC(=O)[C@H](Cc2c[nH]cn2)NC(=O)[C@H](CCCC)NC(=O)[C@H](CC(C)C)NC(=O)[C@H](CCC(N)=O)NC(=O)[C@@H](NC(=O)[C@H](CCC(=O)O)NC(=O)C(C)(C)NC(=O)[C@@H](NC(=O)C2(N)CCCC2)C(C)C)[C@@H](C)CC)[C@@H](C)CC)C(N)=O)[C@@H](O)[C@H](O)[C@H]1O [EU-207] (H-[Ac5c]V[Aib]EIQL[Nle]HQ[hArg]ARWIQ[Aib]K(GlcA(β-D,1-O-dodecyl))-NH2; N-terminus assumed)",agonist,110,,,,,
"CCCCCCCCCCCCO[C@@H]1O[C@H](C(=O)NCCCC[C@H](NC(=O)[C@H](CC(C)C)NC(=O)[C@H](Cc2ccccc2)NC(=O)[C@@H]2CCC(=O)NCCCC[C@H](NC(=O)[C@H](CC(=O)O)NC(=O)[C@H](CCC(N)=O)NC(=O)[C@@H](NC(=O)[C@H](Cc3c[nH]c4ccccc34)NC(=O)[C@H](CCCNC(=N)N)NC(=O)[C@H](C)NC(=O)[C@H](CCCCNC(=N)N)NC(=O)[C@H](CCC(N)=O)NC(=O)[C@H](Cc3c[nH]cn3)NC(=O)[C@H](CCCC)NC(=O)[C@H](CC(C)C)NC(=O)[C@H](CCC(N)=O)NC(=O)[C@@H](NC(=O)[C@H](CCC(=O)O)NC(=O)C(C)(C)NC(=O)[C@@H](NC(=O)C3(N)CCCC3)C(C)C)[C@@H](C)CC)[C@@H](C)CC)C(=O)N[C@@H](CCCNC(=N)N)C(=O)N[C@@H](CCCNC(=N)N)C(=O)N[C@@H](CCCNC(=N)N)C(=O)N2)C(=O)NC(C)(C)C(N)=O)[C@@H](O)[C@H](O)[C@H]1O [EU-284] (H-[Ac5c]V[Aib]EIQL[Nle]HQ[hArg]ARWIQDKRRREFLK(GlcA(β-D,1-O-dodecyl))[Aib]-NH2; lactam 18-22; N-terminus assumed)",agonist,110,,,,,
"CO[C@@H]1O[C@H](C(=O)NCCCC[C@H](NC(=O)[C@H](Cc2c(C)cc(C)cc2C)NC(=O)[C@@H]2CCCN2C(=O)[C@@H](N)Cc2c(C)cc(O)cc2C)C(N)=O)[C@@H](O)[C@H](O)[C@H]1O [EU-A101, Dmt-Pro-Tmp-Lys(C1-glucuronyl)-NH2] (H-[Dmt]P[Phe(2,4,6-Me3)]K(βGlcA(1-OMe))-NH2)",,,,,,,Characterization (MOP) (mu opioid receptor): pure agonist; EC50 (mu opioid receptor): 13 nM
"CO[C@@H]1O[C@H](C(=O)NCCCC[C@@H](NC(=O)[C@@H](N)Cc2c(C)cc(O)cc2C)C(=O)N[C@@H](Cc2c(C)cc(C)cc2C)C(=O)N[C@@H](Cc2ccccc2)C(N)=O)[C@@H](O)[C@H](O)[C@H]1O [EU-A107, Dmt-D-Lys(C1-glucuronyl)-Tmp-Phe-NH2] (H-[Dmt][dK](βGlcA(1-OMe))[Phe(2,4,6-Me3)]F-NH2; N-terminus assumed)",,,,,,,Characterization (MOP) (mu opioid receptor): Agonist; EC50 (mu opioid receptor): 60 nM
CCCCCCCCO[C@@H]1O[C@H](C(=O)NCCCC[C@H](NC(=O)[C@@H](NC(=O)[C@H](Cc2ccccc2)NC(=O)[C@H](CCC(=O)O)NC(=O)[C@@H]2CCCCNC(=O)CC[C@H](NC(=O)[C@H](CC(=O)O)NC(=O)[C@H](CC(C)C)NC(=O)[C@H](Cc3ccc(O)cc3)NC(=O)[C@H](CCCCN)NC(=O)[C@H](CO)NC(=O)[C@H](Cc3ccc(O)cc3)NC(=O)[C@H](CC(=O)O)NC(=O)[C@H](CO)NC(=O)[C@@H](NC(=O)[C@H](Cc3ccccc3)NC(=O)[C@@H](NC(=O)CNC(=O)[C@H](CCC(N)=O)NC(=O)C(C)(C)NC(=O)[C@@H](N)Cc3c[nH]cn3)[C@@H](C)O)[C@@H](C)O)C(=O)N[C@@H](CCC(N)=O)C(=O)N[C@@H](C)C(=O)N[C@@H](C)C(=O)N2)[C@@H](C)CC)C(=O)N[C@@H](Cc2c[nH]c3ccccc23)C(=O)N[C@@H](CC(C)C)C(=O)N[C@@H](CC(C)C)C(=O)N[C@@H](CCC(N)=O)C(=O)N[C@H](C(N)=O)[C@@H](C)O)[C@@H](O)[C@H](O)[C@H]1O [EU-A992],,,405,104,112,130,
CCCCCCCCCCO[C@@H]1O[C@H](C(=O)NCCCC[C@H](NC(=O)[C@@H](NC(=O)[C@H](Cc2ccccc2)NC(=O)[C@H](CCC(=O)O)NC(=O)[C@@H]2CCCCNC(=O)CC[C@H](NC(=O)[C@H](CC(=O)O)NC(=O)[C@H](CC(C)C)NC(=O)[C@H](Cc3ccc(O)cc3)NC(=O)[C@H](CCCCN)NC(=O)[C@H](CO)NC(=O)[C@H](Cc3ccc(O)cc3)NC(=O)[C@H](CC(=O)O)NC(=O)[C@H](CO)NC(=O)[C@@H](NC(=O)[C@H](Cc3ccccc3)NC(=O)[C@@H](NC(=O)CNC(=O)[C@H](CCC(N)=O)NC(=O)C(C)(C)NC(=O)[C@@H](N)Cc3c[nH]cn3)[C@@H](C)O)[C@@H](C)O)C(=O)N[C@@H](CCC(N)=O)C(=O)N[C@@H](C)C(=O)N[C@@H](C)C(=O)N2)[C@@H](C)CC)C(=O)N[C@@H](Cc2c[nH]c3ccccc23)C(=O)N[C@@H](CC(C)C)C(=O)N[C@@H](CC(C)C)C(=O)N[C@@H](CCC(N)=O)C(=O)N[C@H](C(N)=O)[C@@H](C)O)[C@@H](O)[C@H](O)[C@H]1O [EU-A1167],,,379,171,117,113,
CCCCCCCCCCCO[C@@H]1O[C@H](C(=O)NCCCC[C@H](NC(=O)[C@@H](NC(=O)[C@H](Cc2ccccc2)NC(=O)[C@H](CCC(=O)O)NC(=O)[C@@H]2CCCCNC(=O)CC[C@H](NC(=O)[C@H](CC(=O)O)NC(=O)[C@H](CC(C)C)NC(=O)[C@H](Cc3ccc(O)cc3)NC(=O)[C@H](CCCCN)NC(=O)[C@H](CO)NC(=O)[C@H](Cc3ccc(O)cc3)NC(=O)[C@H](CC(=O)O)NC(=O)[C@H](CO)NC(=O)[C@@H](NC(=O)[C@H](Cc3ccccc3)NC(=O)[C@@H](NC(=O)CNC(=O)[C@H](CCC(N)=O)NC(=O)C(C)(C)NC(=O)[C@@H](N)Cc3c[nH]cn3)[C@@H](C)O)[C@@H](C)O)C(=O)N[C@@H](CCC(N)=O)C(=O)N[C@@H](C)C(=O)N[C@@H](C)C(=O)N2)[C@@H](C)CC)C(=O)N[C@@H](Cc2c[nH]c3ccccc23)C(=O)N[C@@H](CC(C)C)C(=O)N[C@@H](CC(C)C)C(=O)N[C@@H](CCC(N)=O)C(=O)N[C@H](C(N)=O)[C@@H](C)O)[C@@H](O)[C@H](O)[C@H]1O [EU-A1168],,,380,133,169,164,
